Laboratory results published in patent US20200331950A1, “SGLTS INHIBITOR AND APPLICATION THEREOF” (SHANDONG DANHONG PHARMACEUTICAL CO., LTD., priority 2018, published 2020).
Marks after values point to notes of the source that are not given here.

Assays:
db/db mice [1] = test: Fasting blood glucose in diabetic db/db mice; assay type: in vivo; details: fasted from 10:00, mean±S.E.M.
Description: (§1) Experimental Example 4: Study on the In Vivo Pharmacodynamics in Diabetic Db/Db Mice
The animals were kept in an animal breeding room with strictly controlled environmental conditions after they arrived. The animal breeding room was maintained at a temperature of 20-24° C. and a humidity of 40-70%. The temperature and humidity in the feeding room were monitored in real time by a hygrothermograph, and the temperature and humidity were recorded twice daily (one in the morning and the other in the afternoon). The lighting of the animal feeding room was controlled by an on-off electronic timing system, with lights for 12 hours and dark for 12 hours daily (turned on at 7:00 a.m. and turned off at 19:00 p.m). The mice were raised in separate cages and were given free access to feed (reproductive feed 17053113 for rats and mice, available from Beijing Keao Xieli Feed Co., Ltd.) and water during the experiment.
(§2) During the experiment, the animals were administrated with the corresponding vehicles or drugs according to the group with an administration time of 16:00 and an administration period of 8 weeks.
(§3) The dose was 5 mg/kg from week 1 to week 4; and the dose was 10 mg/kg from week 5 to week 8.
Random and fasting blood glucose levels were measured once a week.
Fasting blood glucose test: The mice fasted from 10:00 a.m., and blood glucose level was firstly measured at 16:00. Then the mice were administered with the drugs, and 2 hours later blood glucose level was measured again, and then feed intake was restored.
(§4) All of the data were entered into an Excel document and expressed in the form of mean±S.E.M. The differences between groups were compared using graphpad Prism 6 software and one-way analysis of variance (ANOVA). P value of less than 0.05 is considered a significant difference.

db/db mice [2] = test: Glycosylated hemoglobin (HbA1c) in diabetic db/db mice; assay type: in vivo; details: for HbA1c (%): fasted 6 hours; for Rate of Decline of HbA1c (%): vs. vehicle control group
Description: as §1, §2, §3
At weeks 4 and 8 of the experiment, the animals fasted for 6 hours, and blood samples were collected to measure glycosylated hemoglobin.
as §4

Human-SGLT2 = biological target: T1, Human-SGLT2 (Homo sapiens, UniProt P31639); test: SGLT2 glucose transport test ([14C]-labeled methyl a-D-glucopyranoside uptake); assay type: cell-based; details: cells stably expressing Human-SGLT2; 37° C., 2 hours
T1 sequence (P31639 1-672): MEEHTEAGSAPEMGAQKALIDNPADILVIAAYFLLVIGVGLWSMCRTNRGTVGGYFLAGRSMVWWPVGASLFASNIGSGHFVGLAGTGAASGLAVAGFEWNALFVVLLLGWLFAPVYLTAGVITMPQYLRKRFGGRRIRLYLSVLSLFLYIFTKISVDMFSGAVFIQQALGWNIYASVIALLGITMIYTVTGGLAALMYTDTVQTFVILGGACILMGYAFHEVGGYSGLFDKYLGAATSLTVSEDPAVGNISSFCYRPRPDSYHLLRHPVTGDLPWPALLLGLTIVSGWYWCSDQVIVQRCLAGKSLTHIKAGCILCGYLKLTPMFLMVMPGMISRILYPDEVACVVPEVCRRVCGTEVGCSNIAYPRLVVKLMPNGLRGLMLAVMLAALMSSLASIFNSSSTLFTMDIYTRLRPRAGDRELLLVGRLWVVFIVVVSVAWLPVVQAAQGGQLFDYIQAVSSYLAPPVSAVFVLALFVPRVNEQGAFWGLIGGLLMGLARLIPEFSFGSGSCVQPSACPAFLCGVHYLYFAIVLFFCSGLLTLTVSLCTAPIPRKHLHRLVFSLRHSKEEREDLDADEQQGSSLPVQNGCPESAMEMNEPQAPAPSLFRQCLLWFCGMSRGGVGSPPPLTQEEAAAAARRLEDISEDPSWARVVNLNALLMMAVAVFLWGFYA
Description: Biological Activity Experiment 2: SGLT2 Glucose Transport Test.
1. Purpose of the Experiment:
The effect of the compound on the glucose transport activity of SGLT2 transporter was detected by measuring the amount of [^14C]-labeled glucose entering cells with high expression of Human-SGLT2.
The cells stably expressing Human-SGLT2 were constructed by Wuxi AppTec(Shanghai) Co., Ltd. SGLT2 cells were laid in 96-well cell culture plate (Greiner) and cultured overnight in 5% CO2 environment at 37° C.
2.2. SGLT2 Glucose Transport Test.
1) Experimental buffer, including: 10 mM 4-hydroxyethylpiperazineethanesulfonic acid (HEPES), 1.2 mM magnesium chloride (MgCl2), 4.7 mM potassium chloride (KCl), 2.2 mM calcium chloride (CaCl2) and 120 mM sodium chloride (NaCl).
2) Stop buffer, including: 10 mM 4-hydroxyethylpiperazineethanesulfonic acid (HEPES), 1.2 mM magnesium chloride (MgCl2), 4.7 mM potassium chloride (KCl), 2.2 mM calcium chloride (CaCl2), 120 mM sodium chloride (NaCl) and 1 μM LX4211.
3) Compounds were serially diluted in 100% dimethyl sulfoxide (DMSO) starting at 10 uM and make a 5-folds, 8 points serials compound dilutions.
4) 6 μM [^14C]-labeled methyl a-D-lucopyranosid was prepared with the experimental buffer.
5) The cells were treated with 49 uL of the experimental buffer, 1 μL of the gradient diluted compound and 50 μL of the 6 μM [^14C]-labeled methyl a-D-lucopyranosid solution at 37° C. for 2 hours.
6) The solution was sucked out from holes, and the cells were rinsed with the stop buffer for 3 times.
7) The cells were lysed with 50 ul of 10% sodium hydroxide solution, the cell lysate was sucked into a scintillation tube, into which 2 mL scintillation solution was then added.
8) The data were read with an isotope detector Tricarb.
9) The IC50 value of the tested compound was obtained by the calculation formula: log(inhibitor) vs. response—Variable slope, using GraphPad Prism 5.0 software.

SD rats = test: Oral glucose tolerance test (OGTT) in rats, first time; assay type: in vivo; details: first study, male SD rats, 10 mg/kg single intragastric administration; for OGTT blood glucose level AUC0-2 hr: glucose 2 g/kg; for Urine glucose level / Urine volume: urine 0-24 h
Description: Experimental Example 3. Study on In Vivo Efficacy of Oral Glucose Tolerance Test (OGTT) in Rats: Study on the In Vivo Efficacy of Oral Glucose Tolerance Test (OGTT) in Rats for the First Time
The experimental animals were allowed to adapt to the environment in the animal room for one week after they arrived.
The animals fasted in the metabolic cage for 18 hours, then were given drugs or vehicle (2 ml/kg) according to the above table, and subsequently were immediately given 50% glucose solution (2 g/kg, 4 ml/kg).
2 hours after the administration of glucose solution, feed intake was restored. Blood samples were taken at 0 min, 15 min, 30 min, 45 min, 60 min and 120 min respectively, and urine samples were collected at 0-24 h to test blood glucose, urine glucose (mg/200 g) and urine volume respectively.
All values are represented as averages. Statistical analysis was performed using Graphpad Prism 6 one-way analysis of variance and Tukey's multiple comparison test. P value of less than 0.05 is considered statistically significant.

[3] = Week 1, 5 mg/kg intragastric once daily
[4] = Week 2, 5 mg/kg intragastric once daily
[5] = Week 3, 5 mg/kg intragastric once daily
[6] = Week 4, 5 mg/kg intragastric once daily
[7] = Week 5, 10 mg/kg intragastric once daily (5 mg/kg weeks 1-4)
[8] = Week 6, 10 mg/kg intragastric once daily (5 mg/kg weeks 1-4)
[9] = Week 7, 10 mg/kg intragastric once daily (5 mg/kg weeks 1-4)
[10] = Week 8, 10 mg/kg intragastric once daily (5 mg/kg weeks 1-4)
[11] = Week 8, 5 mg/kg weeks 1-4, 10 mg/kg weeks 5-8, once daily

SMILES	Fasting blood glucose (db/db mice [1]; [3])	Fasting blood glucose (db/db mice [1]; [4])	Fasting blood glucose (db/db mice [1]; [5])	Fasting blood glucose (db/db mice [1]; [6])	Fasting blood glucose (db/db mice [1]; [7])	Fasting blood glucose (db/db mice [1]; [8])	Fasting blood glucose (db/db mice [1]; [9])	Fasting blood glucose (db/db mice [1]; [10])	HbA1c (%) (db/db mice [2]; [6])	Rate of Decline of HbA1c (%) (db/db mice [2]; [6])	HbA1c (%) (db/db mice [2]; [11])	Rate of Decline of HbA1c (%) (db/db mice [2]; [11])	IC50 (Human-SGLT2)	OGTT blood glucose level AUC0-2 hr (SD rats)	Urine glucose level (SD rats)	Urine volume (SD rats)
CCc1ccc([C@@H]2O[C@H](SC)[C@@H](O)[C@H](O)[C@H]2O)cc1Cc1ccc(C2=CCC(F)(F)CC2)cc1 [WXD010]	14.7 ± 2.50	14.4 ± 1.47	15.8 ± 1.40	14.9 ± 1.24	15.9 ± 0.79	11.0 ± 1.67	9.6 ± 0.91	8.1 ± 0.51	5.8*** %	−31%	5.1**** %	−47%	2.49 nM			
CS[C@H]1OC(c2ccc(Cl)c(Cc3ccc(C4=CCC(F)(F)CC4)cc3)c2)[C@H](O)[C@@H](O)[C@@H]1O (stereo partly drawn) [WXD001]													3.98 nM	832 mmol/L/min	2181.4**** mg/200 g, BW	37.58**** mL/200 gBW
CS[C@H]1O[C@@H](c2ccc(C)c(Cc3ccc(C4=CCC(F)(F)CC4)cc3)c2)[C@H](O)[C@@H](O)[C@@H]1O [WXD003]	14.8 ± 2.34	19.9 ± 1.32	15.8 ± 1.48	14.3 ± 1.29	17.4 ± 1.72	10.9 ± 1.42	11.7 ± 1.30	13.0 ± 1.36	5.7*** %	−32%	5.9**** %	−39%	2.04 nM	797 mmol/L/min	1636.4**** mg/200 g, BW	24.58 mL/200 gBW
